Here are results for five compounds from patent publication US11028069B2, “Salt of substituted piperidine compound” (TAIHO PHARMACEUTICAL CO., LTD., priority 2016, dated 2021).

The nature of data set [1]: Solubility measurement, Japanese Pharmacopoeia Dissolution test. The data set is classed as physicochemical. As to conditions: crystals; for solubility, 1st fluid for dissolution test: Japanese Pharmacopoeia 1st fluid for dissolution test; for solubility, 2nd fluid for dissolution test: Japanese Pharmacopoeia 2nd fluid for dissolution test. As for the experimental part: The solubility measurement was conducted on the hydrochloride salt, the mesylate salt, the potassium salt, and the sodium salt of Compound 1 and the free form of Compound 1. Specifically, the solubility of the samples: the crystals of the hydrochloride salt of Compound 1 produced in Example 1; the crystals of the mesylate salt of Compound 1 produced in Comparative Example 1; the crystals of the potassium salt of Compound 1 produced in Comparative Example 2; the crystals of the sodium salt of Compound 1 produced in Comparative Example 3; and the crystal of the free form of Compound 1, in the 1st and 2nd fluids for dissolution test according to Japanese Pharmacopoeia was measured according to Japanese Pharmacopoeia, Dissolution test.

Data set [2] is described as follows: Stability test (solid change) by DSC measurement. The data set is classed as physicochemical. As to conditions: crystals, 10° C./min, room temperature to 300° C. As for the experimental part:
The DSC measurement was conducted according to the following test conditions. • Equipment: TA Instruments Q1000 • Sample: about 5 mg • Rate of temperature increase: 10° C./min • Measurement temperature: Room temperature to 300° C.
On the technique in general: In DSC, transitions show as peaks or steps in heat flow.

A short description of data set [3]: Dynamic vapor sorption system (DVS) analysis (hygroscopicity). The data set is classed as physicochemical. Particulars: increase of humidity from 5% to 75% RH, 25° C. As for the experimental part:
The dynamic vapor sorption system (DVS) analysis was conducted under the following conditions. • Equipment: TA Instruments VTI SGA-100 • Sample: about 10 mg • Measurement temperature: 25° C. • RH steps: 5-95-1% RH by 5% RH
The hygroscopicity of the hydrochloride salt of Compound 1 obtained in Example 1 and the potassium salt obtained in Comparative Example 2 was examined by dynamic vapor sorption system (DVS) analysis. The adsorption and desorption data was collected at 5% relative humidity (RH) intervals in the range of 5% to 95% RH. Before the measurement, the temperature was increased at 1° C./min to 25° C. under nitrogen purging and the salts were dried for up to 6 hours until the weight change in 5 minutes became less than 0.0100%. At the time of the measurement, up to 2 hours of equilibration was conducted until the weight change in 5 minutes became less than 0.0100%.

Data set [4] is described as follows: Absorption test, oral administration to mice, plasma concentration by LC/MS. As to conditions: BALB/cA mice, 50 mg/kg in terms of Compound 1, suspended in 0.5% HPMC. Format: in vivo. On the procedure:
The hydrochloride salt of Compound 1 was suspended in 0.5% HPMC, and orally administered to BALB/cA mice at 50 mg/kg in terms of the dose of Compound 1. At 0.5, 1, 2, 4, and 6 hours after the oral administration, the blood was collected from the eyeground, and the plasma was obtained. The compound concentration in the obtained plasma was measured by LC/MS (Agilent Technologies Inc. Agilent 1200, AB Sciex Pte. Ltd. AB Sciex API400) and the oral absorption was evaluated.

The nature of data set [5]: Stability test (purity) by liquid chromatography after storage. The data set is classed as physicochemical. As to conditions: for purity (%) in samples, 40° C. (open system): crystals left at 40° C. (open system) for 1 month; for purity (%) in samples, 60° C. (open system): crystals left at 60° C. (open system) for 1 month; for purity (%) in samples, under light irradiation: crystals left under light irradiation (1200000 Lux·hr) for 1 month; for purity (%) in samples, before starting test: crystals. On the procedure:
The measurement by liquid chromatography was conducted according to the following test conditions. • Equipment: Agilent Technologies, Inc., 1200 Series Binary LC System • Mobile phase A: 10 mM Na2HPO4 aqueous solution (pH 6.5) • Mobile phase B: Acetonitrile • Gradient: described in Table 1 • Column: Ascentis Express C18, 150 mm×4.6 mm i.d., 2.7 μm • Measurement wavelength: 210 nm
The crystals of the hydrochloride salt, the mesylate salt, the potassium salt, the sodium salt, and the free form of Compound 1 obtained in Example 1 and Comparative Examples 1 to 4 were each left under conditions at 40° C. (open system), at 60° C. (open system), and under light irradiation (1200000 Lux·hr) for 1 month. Subsequent measurement of purity by liquid chromatography indicated the purity change between before and after the test was 0.2% or less in any of the conditions.

Where a name gives a salt, the structure may show the parent alone.

For the compound `Cc1cc(Nc2nc(CC3(C(=O)O)CCN(C(=O)c4cccc(Cl)c4Cl)CC3)ccc2F)n[nH]1` [Mesylate salt, 1-(2,3-dichlorobenzoyl)-4-((5-fluoro-6-(5-methyl-1H-pyrazol-3-ylamino)pyridin-2-yl)methyl)piperidine-4-carboxylic acid], in data set [1], the “solubility, 1st fluid for dissolution test” value (“solubility, 1st fluid” below) came out at 490 µg/mL and the “solubility, 2nd fluid for dissolution test” value (shortened to “solubility, 2nd fluid”) is 420 µg/mL. Also, in data set [2], the “DSC chart: endothermic and exothermic processes at relatively low temperatures (solid change)” value is listed as “such charts were not obtained”.

Turning to `Cc1cc(Nc2nc(CC3(C(=O)O)CCN(C(=O)c4cccc(Cl)c4Cl)CC3)ccc2F)n[nH]1` [Sodium salt, 1-(2,3-dichlorobenzoyl)-4-((5-fluoro-6-(5-methyl-1H-pyrazol-3-ylamino)pyridin-2-yl)methyl)piperidine-4-carboxylic acid], in data set [3] (listed as sodium salt of Compound 1), the “weight change in DVS analysis” value was at least 40%. In data set [1], the “solubility, 1st fluid” value is over 1000 µg/mL and the “solubility, 2nd fluid” value is over 1000 µg/mL. Besides, in data set [2], the “DSC chart: endothermic and exothermic processes at relatively low temperatures (solid change)” value was “charts suggesting endothermic and exothermic processes at relatively low temperatures were obtained”.

For `Cc1cc(Nc2nc(CC3(C(=O)O)CCN(C(=O)c4cccc(Cl)c4Cl)CC3)ccc2F)n[nH]1` [Free form, 1-(2,3-dichlorobenzoyl)-4-((5-fluoro-6-(5-methyl-1H-pyrazol-3-ylamino)pyridin-2-yl)methyl)piperidine-4-carboxylic acid], in data set [1], the “solubility, 1st fluid” value stood at 24 µg/mL and the “solubility, 2nd fluid” value was determined as 6 µg/mL. Besides, the “DSC chart: endothermic and exothermic processes at relatively low temperatures (solid change)” value in data set [2] was “such charts were not obtained”. Besides, in data set [4], the “Plasma concentration AUC0-6 h” value stood at 0.43 µM·h.

Take `Cc1cc(Nc2nc(CC3(C(=O)O)CCN(C(=O)c4cccc(Cl)c4Cl)CC3)ccc2F)n[nH]1` [Hydrochloride salt, 1-(2,3-dichlorobenzoyl)-4-((5-fluoro-6-(5-methyl-1H-pyrazol-3-ylamino)pyridin-2-yl)methyl)piperidine-4-carboxylic acid]: the “weight change in DVS analysis” value in data set [3] (listed as hydrochloride salt of Compound 1) is “less than 0.5%”. Besides, the “weight change in DVS analysis” value in data set [3] (listed as hydrochloride salt of the present invention) is “less than 0.5%”. Further, in data set [1], the “solubility, 1st fluid” value was over 1000 µg/mL and the “solubility, 2nd fluid” value is over 1000 µg/mL. In data set [5], the “purity (%) in samples, 40° C. (open system)” value stood at 99.2%; the “purity (%) in samples, 60° C. (open system)” value was 99.3%; the “purity (%) in samples, under light irradiation” value came to 99.4%; the “purity (%) in samples, before starting test” value is reported as 99.4%. In addition, the “DSC chart: endothermic and exothermic processes at relatively low temperatures (solid change)” value in data set [2] is reported as “such charts were not obtained”. Further, the “Plasma concentration AUC0-6 h” value in data set [4] was 18.2 µM·h.

As for `Cc1cc(Nc2nc(CC3(C(=O)O)CCN(C(=O)c4cccc(Cl)c4Cl)CC3)ccc2F)n[nH]1` [Potassium salt, 1-(2,3-dichlorobenzoyl)-4-((5-fluoro-6-(5-methyl-1H-pyrazol-3-ylamino)pyridin-2-yl)methyl)piperidine-4-carboxylic acid], in data set [3], the “weight change in DVS analysis” value is reported as “exceeded 14%”. Moreover, in data set [1], the “solubility, 1st fluid” value is over 1000 µg/mL and the “solubility, 2nd fluid” value amounted to 730 µg/mL. Besides, in data set [5], the “purity (%) in samples, 40° C. (open system)” value was found to be 99.7%; the “purity (%) in samples, 60° C. (open system)” value was 99.8%; the “purity (%) in samples, under light irradiation” value is recorded as 99.8%; the “purity (%) in samples, before starting test” value turned out to be 99.8%. The “DSC chart: endothermic and exothermic processes at relatively low temperatures (solid change)” value in data set [2] was “charts suggesting endothermic and exothermic processes at relatively low temperatures were obtained”.
